According to patent US20260262643A1, “HERBICIDAL BENZOXAZINES” (FMC CORPORATION, priority 2022, published 2026):

Columns and labels:
blackgrass [1] = assay: Test A preemergence; assay type: in vivo, Alopecurus myosuroides
Summary of the method: (§1)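 Plants were grown in loam and sand and treated preemergence or postemergence (one- to two-leaf stage, 2–10 cm) with compound in solvent plus surfactant. Response was scored against untreated controls after 10 greenhouse days, where 0 means no effect and 100 complete control.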

barnyardgrass = assay: Test B flooded paddy test; assay type: in vivo, Echinochloa crus-galli; details: 250 g ai/ha, Flood, 13 days, 0 to 100 scale (0 no effect, 100 complete control)
Summary of the method: (§2)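 Species grown to 2-leaf stage; pots flooded 3 cm above soil and compound applied directly to paddy water, depth maintained throughout. After 13 days in greenhouse, plants visually rated against controls on 0–100 scale (0 no effect, 100 complete control); dash means no result.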

kochia [2] = assay: Test A preemergence; assay type: in vivo, Bassia scoparia
Summary of the method: as §1

sedge, umbrella = assay: Test B flooded paddy test; assay type: in vivo, Cyperus difformis; details: 250 g ai/ha, Flood, 13 days, 0 to 100 scale (0 no effect, 100 complete control)
Summary of the method: as §2

soybean [3] = assay: Test A postemergence; assay type: in vivo, Glycine max
Summary of the method: as §1

galium = assay: Test A postemergence; assay type: in vivo, Galium aparine
Summary of the method: as §1

ducksalad = assay: Test B flooded paddy test; assay type: in vivo, Heteranthera limosa; details: 250 g ai/ha, Flood, 13 days, 0 to 100 scale (0 no effect, 100 complete control)
Summary of the method: as §2

oat, wild [4] = assay: Test A postemergence; assay type: in vivo, Avena fatua
Summary of the method: as §1

wheat [5] = assay: Test A preemergence; assay type: in vivo, Triticum aestivum
Summary of the method: as §1

corn [6] = assay: Test A postemergence; assay type: in vivo, Zea mays
Summary of the method: as §1

foxtail, giant [7] = assay: Test A preemergence; assay type: in vivo, Setaria faberi
Summary of the method: as §1

goosegrass [8] = assay: Test A preemergence; assay type: in vivo, Eleusine indica
Summary of the method: as §1

ryegrass, Italian [9] = assay: Test A postemergence; assay type: in vivo, Lolium multiflorum
Summary of the method: as §1

foxtail, giant [10] = assay: Test A postemergence; assay type: in vivo, Setaria faberi
Summary of the method: as §1

wheat [11] = assay: Test A postemergence; assay type: in vivo, Triticum aestivum
Summary of the method: as §1

corn [12] = assay: Test A preemergence; assay type: in vivo, Zea mays
Summary of the method: as §1

oat, wild [13] = assay: Test A preemergence; assay type: in vivo, Avena fatua
Description: Seeds of plant species selected from barnyardgrass (Echinochloa crusgalli), blackgrass (Alopecurus myosuroides), corn (Zea mays), foxtail, giant (giant foxtail, Setaria faberi), goosegrass (Eleusine indica), kochia (Bassia scoparia), oat, wild (wild oat, Avena fatua), pigweed, palmer (palmer amaranth, palmer pigweed, Amaranthus palmeri), Pigweed, Redroot (redroot pigweed, Amaranthus retroflexus), ragweed (common ragweed, Ambrosia artemisiifolia), ryegrass, Italian (italian ryegrass, Lolium multiflorum), soybean (Glycine max), and wheat (Triticum aestivum) were planted into a blend of loam soil and sand and treated preemergence with a directed soil spray using test chemicals formulated in a non-phytotoxic solvent mixture which included a surfactant. At the same time, plants selected from these crops and weed species and also galium (catchweed bedstraw, Galium aparine) and horseweed (Erigeron canadensis) were planted in pots containing the same blend of loam soil and sand and treated with postemergence applications of test chemicals formulated in the same manner. Plants ranged in height from 2 to 10 cm and were in the one- to two-leaf stage for the postemergence treatment. Treated plants and untreated controls were maintained in a greenhouse for 10 days, after which time all treated plants were compared to untreated controls and visually evaluated for injury. Plant response ratings, summarized in Table A, are based on a 0 to 100 scale where 0 is no effect and 100 is complete control. A dash (-) response means no test result.

pigweed, palmer [14] = assay: Test A postemergence; assay type: in vivo, Amaranthus palmeri
Summary of the method: as §1

rice = assay: Test B flooded paddy test; assay type: in vivo, Oryza sativa; details: 250 g ai/ha, Flood, 13 days, 0 to 100 scale (0 no effect, 100 complete control)
Summary of the method: as §2

ryegrass, Italian [15] = assay: Test A preemergence; assay type: in vivo, Lolium multiflorum
Summary of the method: as §1

soybean [16] = assay: Test A preemergence; assay type: in vivo, Glycine max
Summary of the method: as §1

kochia [17] = assay: Test A postemergence; assay type: in vivo, Bassia scoparia
Summary of the method: as §1

ragweed [18] = assay: Test A preemergence; assay type: in vivo, Ambrosia artemisiifolia
Summary of the method: as §1

blackgrass [19] = assay: Test A postemergence; assay type: in vivo, Alopecurus myosuroides
Summary of the method: as §1

ragweed [20] = assay: Test A postemergence; assay type: in vivo, Ambrosia artemisiifolia
Summary of the method: as §1

pigweed, palmer [21] = assay: Test A preemergence; assay type: in vivo, Amaranthus palmeri
Summary of the method: as §1

goosegrass [22] = assay: Test A postemergence; assay type: in vivo, Eleusine indica
Summary of the method: as §1

[23] = 125 g ai/ha, visual injury after 10 days, 0 to 100 scale, 0 is no effect, 100 is complete control
[24] = 500 g ai/ha, 0 to 100 scale (0 no effect, 100 complete control), 10 days
[25] = 125 g ai/ha, postemergence, 10 days, visual injury, 0 to 100 scale (0 no effect, 100 complete control)
[26] = 500 g ai/ha, Postemergence, 0 to 100 scale

CC1CN(C(=O)c2cccc(-n3cncn3)c2)c2cc(F)cc(F)c2O1 (stereo not shown) [Compound 45]
90: Plant response rating, Galium (galium; [26]) | Plant response rating, Foxtail, Giant (foxtail, giant [10]; [26]) | Plant response rating, Ryegrass, Italian (ryegrass, Italian [15]; [24]) | Plant response rating, Soybean (soybean [16]; [24])
80: Plant response rating, Blackgrass (blackgrass [1]; [24]) | Plant response rating, Galium (galium; [25]) | Plant response rating, Ryegrass, Italian (ryegrass, Italian [9]; [26]) | Plant response rating, Oat, Wild (oat, wild [13]; [24]) | Plant response rating, Kochia (kochia [17]; [26])
10: Plant response rating, Corn (corn [6]; [25]) | Plant response rating, Wheat (wheat [11]; [25]) | Plant response rating, Pigweed, Palmer (pigweed, palmer [14]; [26]) | Plant response rating, Kochia (kochia [17]; [25])
100: Plant response rating, Soybean (soybean [3]; [25]) | Plant response rating, Soybean (soybean [3]; [26]) | Plant response rating, Foxtail, Giant (foxtail, giant [7]; [24]) | Plant response rating, Goosegrass (goosegrass [8]; [24])
60: Plant response rating, Wheat (wheat [5]; [24]) | Plant response rating, Blackgrass (blackgrass [19]; [26]) | Plant response rating, Goosegrass (goosegrass [22]; [26])
0: Plant response rating, Barnyardgrass (barnyardgrass) | Plant response rating, Kochia (kochia [2]; [23]) | Plant response rating, Sedge, Umbrella (sedge, umbrella) | Plant response rating, Ducksalad (ducksalad) | Plant response rating, Oat, Wild (oat, wild [4]; [25]) | Plant response rating, Wheat (wheat [5]; [23]) | Plant response rating, Corn (corn [12]; [23]) | Plant response rating, Oat, Wild (oat, wild [13]; [23]) | Plant response rating, Rice (rice) | Plant response rating, Ragweed (ragweed [18]; [23]) | Plant response rating, Ragweed (ragweed [18]; [24]) | Plant response rating, Ragweed (ragweed [20]; [25]) | Plant response rating, Goosegrass (goosegrass [22]; [25])
30: Plant response rating, Pigweed, Palmer (pigweed, palmer [14]; [25]) | Plant response rating, Blackgrass (blackgrass [19]; [25]) | Plant response rating, Ragweed (ragweed [20]; [26]) | Plant response rating, Pigweed, Palmer (pigweed, palmer [21]; [23])
40: Plant response rating, Wheat (wheat [11]; [26])
50: Plant response rating, Blackgrass (blackgrass [1]; [23]) | Plant response rating, Ryegrass, Italian (ryegrass, Italian [9]; [25])
20: Plant response rating, Kochia (kochia [2]; [24]) | Plant response rating, Oat, Wild (oat, wild [4]; [26]) | Plant response rating, Corn (corn [6]; [26]) | Plant response rating, Foxtail, Giant (foxtail, giant [10]; [25]) | Plant response rating, Corn (corn [12]; [24]) | Plant response rating, Soybean (soybean [16]; [23])
70: Plant response rating, Foxtail, Giant (foxtail, giant [7]; [23]) | Plant response rating, Goosegrass (goosegrass [8]; [23]) | Plant response rating, Ryegrass, Italian (ryegrass, Italian [15]; [23]) | Plant response rating, Pigweed, Palmer (pigweed, palmer [21]; [24])

C[C@H]1CN(C(=O)c2cccc(-n3cncn3)c2)c2cccc(OC(F)(F)F)c2O1 [Compound 48]
50: Plant response rating, Kochia (kochia [17]; [26])
80: Plant response rating, Blackgrass (blackgrass [1]; [24]) | Plant response rating, Goosegrass (goosegrass [8]; [24])
90: Plant response rating, Foxtail, Giant (foxtail, giant [7]; [24]) | Plant response rating, Pigweed, Palmer (pigweed, palmer [21]; [24])
70: Plant response rating, Soybean (soybean [3]; [25]) | Plant response rating, Foxtail, Giant (foxtail, giant [10]; [26]) | Plant response rating, Pigweed, Palmer (pigweed, palmer [14]; [26]) | Plant response rating, Ryegrass, Italian (ryegrass, Italian [15]; [23])
60: Plant response rating, Galium (galium; [26]) | Plant response rating, Corn (corn [6]; [26])
0: Plant response rating, Barnyardgrass (barnyardgrass) | Plant response rating, Kochia (kochia [2]; [23]) | Plant response rating, Sedge, Umbrella (sedge, umbrella) | Plant response rating, Ducksalad (ducksalad) | Plant response rating, Wheat (wheat [5]; [23]) | Plant response rating, Wheat (wheat [5]; [24]) | Plant response rating, Corn (corn [12]; [23]) | Plant response rating, Rice (rice) | Plant response rating, Soybean (soybean [16]; [23]) | Plant response rating, Soybean (soybean [16]; [24]) | Plant response rating, Ragweed (ragweed [18]; [23]) | Plant response rating, Ragweed (ragweed [18]; [24]) | Plant response rating, Blackgrass (blackgrass [19]; [25]) | Plant response rating, Ragweed (ragweed [20]; [25]) | Plant response rating, Goosegrass (goosegrass [22]; [25])
30: Plant response rating, Kochia (kochia [2]; [24]) | Plant response rating, Oat, Wild (oat, wild [4]; [26]) | Plant response rating, Wheat (wheat [11]; [26]) | Plant response rating, Corn (corn [12]; [24]) | Plant response rating, Oat, Wild (oat, wild [13]; [24]) | Plant response rating, Pigweed, Palmer (pigweed, palmer [14]; [25]) | Plant response rating, Blackgrass (blackgrass [19]; [26]) | Plant response rating, Pigweed, Palmer (pigweed, palmer [21]; [23])
40: Plant response rating, Galium (galium; [25]) | Plant response rating, Goosegrass (goosegrass [8]; [23]) | Plant response rating, Ryegrass, Italian (ryegrass, Italian [9]; [26]) | Plant response rating, Goosegrass (goosegrass [22]; [26])
20: Plant response rating, Blackgrass (blackgrass [1]; [23]) | Plant response rating, Foxtail, Giant (foxtail, giant [7]; [23]) | Plant response rating, Ryegrass, Italian (ryegrass, Italian [9]; [25]) | Plant response rating, Foxtail, Giant (foxtail, giant [10]; [25]) | Plant response rating, Oat, Wild (oat, wild [13]; [23]) | Plant response rating, Kochia (kochia [17]; [25]) | Plant response rating, Ragweed (ragweed [20]; [26])
100: Plant response rating, Soybean (soybean [3]; [26]) | Plant response rating, Ryegrass, Italian (ryegrass, Italian [15]; [24])
10: Plant response rating, Oat, Wild (oat, wild [4]; [25]) | Plant response rating, Corn (corn [6]; [25]) | Plant response rating, Wheat (wheat [11]; [25])
